Series [1] addresses Serine protease hepsin (Homo sapiens, UniProt P05981). Briefly: Inhibition of human recombinant hepsin by fluorescence based assay using 65 uM BOC-Gln-Arg-Arg -AMC as substrate.
For series [2], the target named is Urokinase-type plasminogen activator (Homo sapiens, UniProt P00749). Kind of series: Inhibition of human uPA by fluorescence based assay using L-PyroGlu-Gly-Arg-pNA.HCl as substrate.
The target of series [3] is T1, Suppressor of tumorigenicity 14 protein (Homo sapiens, UniProt Q9Y5Y6).
T1 sequence (Q9Y5Y6 whole entry): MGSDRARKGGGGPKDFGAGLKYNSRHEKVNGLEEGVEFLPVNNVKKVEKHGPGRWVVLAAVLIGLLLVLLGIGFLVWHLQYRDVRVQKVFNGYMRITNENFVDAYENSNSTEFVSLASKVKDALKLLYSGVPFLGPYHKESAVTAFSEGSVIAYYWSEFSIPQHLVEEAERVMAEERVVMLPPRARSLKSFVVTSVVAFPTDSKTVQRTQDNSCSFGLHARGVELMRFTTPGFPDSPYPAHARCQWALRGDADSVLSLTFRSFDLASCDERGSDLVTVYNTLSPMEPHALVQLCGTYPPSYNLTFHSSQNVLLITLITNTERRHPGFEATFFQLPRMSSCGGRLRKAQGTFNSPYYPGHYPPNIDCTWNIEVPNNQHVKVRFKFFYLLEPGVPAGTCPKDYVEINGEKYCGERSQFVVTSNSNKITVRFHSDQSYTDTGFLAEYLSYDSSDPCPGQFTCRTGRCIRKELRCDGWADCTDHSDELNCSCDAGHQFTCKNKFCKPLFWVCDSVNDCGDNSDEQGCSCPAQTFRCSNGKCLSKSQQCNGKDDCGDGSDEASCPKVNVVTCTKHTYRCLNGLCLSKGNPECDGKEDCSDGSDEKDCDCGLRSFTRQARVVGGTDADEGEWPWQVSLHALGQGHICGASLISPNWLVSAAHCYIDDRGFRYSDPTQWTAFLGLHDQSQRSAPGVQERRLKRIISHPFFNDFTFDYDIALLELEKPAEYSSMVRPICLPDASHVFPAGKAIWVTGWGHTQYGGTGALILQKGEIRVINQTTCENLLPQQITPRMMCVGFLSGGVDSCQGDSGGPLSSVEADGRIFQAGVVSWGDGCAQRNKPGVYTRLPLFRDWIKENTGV
Briefly: Inhibition of human recombinant matriptase by fluorescence based assay using 20 uM Boc-Gln-Ala-Arg-7-amido-4-methyl coumarinhydrobromide as substrate.

Series [4] has as its system PC-3. Briefly: Antimigratory activity in human PC3 cells by transwell-chamber assay. It counts as functional, cell-based.
The test system of series [5] is PC-3. Kind of series: Cytotoxicity against human PC3 cells at 10 uM after 72 hrs by calcein AM assay. It counts as cell-based. To be noted: pc-3, 72 h.
Series [6] in a line: Cytotoxicity against human LNCaP-C42B4 cells at 10 uM after 72 hrs by calcein AM assay. It is filed as cell-based. To be noted: lncap-c42b4, 72 h.
Series [7] is described as follows: Stability in mouse liver microsomes assessed as compound remaining at 1 uM after 20 mins by LC-MS/MS analysis. It is filed as ADME. As to conditions: read-out: Stability. In general terms: Liver microsomes are a subcellular fraction often used to study metabolism.
The nature of series [8]: Stability in mouse liver microsomes assessed as compound remaining at 1 uM after 40 mins by LC-MS/MS analysis. It counts as ADME. To be noted: read-out: Stability.
Series [9] can be described thus: Aqueous solubility of compound at pH 7.4 by HPLC-UV/Vis analysis. It is filed as physicochemical. To be noted: aqueous medium.
Series [10] is described as follows: Antimigratory activity in human LNCaP-C42B4 cells by transwell-chamber assay. It counts as functional, cell-based.
The target in series [11] is Trypsin (Homo sapiens, UniProt P07477+P07478+P35030). Briefly: Inhibition of human trypsin by fluorescence based assay using 25 uM Boc-Gln-Ala-Arg-7-amido-4-methyl coumarinhydrobromide as substrate. It is filed as protein assay.
Series [12] has as its target Coagulation factor X (Bos taurus, UniProt P00743). Kind of series: Inhibition of bovine factor 10a by fluorescence based assay using CH3OCO-D-CHA-Gly-Arg-pNA.AcoH as substrate.
Series [13] deals with Prothrombin (Homo sapiens, UniProt P00734). Briefly: Inhibition of human thrombin by fluorescence based assay using 100 uM Boc-Gln-Ala-Arg-7-amido-4-methyl coumarinhydrobromide as substrate.
Series [14] is described as follows: Antinvasive activity in human LNCaP-C42B4 cells by matrigel assay. It is filed as functional, cell-based.
In series [15] the target is Plasminogen (Homo sapiens) (UniProt P00747). Briefly: Inhibition of human plasmin at 5 uM by fluorescence based assay using pyroGlu-Phe-Lys-pNA.HCl as substrate.
Plasminogen (Homo sapiens), sequence (P00747 97-580 limits assumed): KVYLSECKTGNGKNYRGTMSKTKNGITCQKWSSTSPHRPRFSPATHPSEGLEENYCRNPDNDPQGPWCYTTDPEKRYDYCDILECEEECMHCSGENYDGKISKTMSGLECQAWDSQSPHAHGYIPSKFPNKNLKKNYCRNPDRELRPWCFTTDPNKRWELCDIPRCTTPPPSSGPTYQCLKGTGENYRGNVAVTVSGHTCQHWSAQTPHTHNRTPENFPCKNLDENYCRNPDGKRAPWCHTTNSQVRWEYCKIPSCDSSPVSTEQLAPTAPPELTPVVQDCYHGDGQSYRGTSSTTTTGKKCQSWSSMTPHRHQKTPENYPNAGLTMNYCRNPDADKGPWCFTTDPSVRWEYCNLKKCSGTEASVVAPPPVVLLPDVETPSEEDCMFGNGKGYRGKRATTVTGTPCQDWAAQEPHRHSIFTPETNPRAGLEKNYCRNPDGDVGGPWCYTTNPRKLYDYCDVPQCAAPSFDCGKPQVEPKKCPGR
Plasminogen (Homo sapiens), sequence (P00747 581-810 limits assumed): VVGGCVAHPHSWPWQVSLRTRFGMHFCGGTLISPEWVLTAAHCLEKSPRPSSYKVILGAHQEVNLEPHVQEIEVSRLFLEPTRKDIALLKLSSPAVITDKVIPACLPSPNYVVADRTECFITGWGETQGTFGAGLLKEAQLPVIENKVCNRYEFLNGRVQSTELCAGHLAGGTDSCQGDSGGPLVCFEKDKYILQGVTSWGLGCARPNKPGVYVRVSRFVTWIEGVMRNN
The test system of series [16] is PC-3. Kind of series: Antinvasive activity in human PC3 cells by matrigel assay. It is filed as functional, cell-based.

In brackets after ≈: the same amount, converted by molar mass.

The text below walks through data of ChEMBL document CHEMBL3632605, “Structure-guided discovery of 2-aryl/pyridin-2-yl-1H-indole derivatives as potent and selective hepsin inhibitors” (Bioorg Med Chem Lett, 2015).

Coagulation factor X, sequence (P00743 41-180 limits assumed): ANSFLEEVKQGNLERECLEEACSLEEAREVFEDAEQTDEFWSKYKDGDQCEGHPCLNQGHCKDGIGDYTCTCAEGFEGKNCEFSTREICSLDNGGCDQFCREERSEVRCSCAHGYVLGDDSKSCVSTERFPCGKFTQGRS
Coagulation factor X, sequence (P00743 234-492 limits assumed): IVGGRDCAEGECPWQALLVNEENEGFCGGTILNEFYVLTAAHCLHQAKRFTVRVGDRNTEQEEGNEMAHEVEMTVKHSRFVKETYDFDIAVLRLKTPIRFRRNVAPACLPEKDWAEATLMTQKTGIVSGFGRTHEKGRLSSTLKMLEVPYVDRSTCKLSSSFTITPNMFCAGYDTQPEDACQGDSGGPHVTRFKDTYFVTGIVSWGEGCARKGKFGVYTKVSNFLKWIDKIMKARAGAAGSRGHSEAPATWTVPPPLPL
Serine protease hepsin, sequence (P05981 1-162 limits assumed): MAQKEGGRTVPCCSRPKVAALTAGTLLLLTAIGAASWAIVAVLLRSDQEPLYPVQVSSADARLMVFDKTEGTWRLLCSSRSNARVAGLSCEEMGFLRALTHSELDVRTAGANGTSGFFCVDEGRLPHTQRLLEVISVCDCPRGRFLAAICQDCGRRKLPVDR
Serine protease hepsin, sequence (P05981 163-417 limits assumed): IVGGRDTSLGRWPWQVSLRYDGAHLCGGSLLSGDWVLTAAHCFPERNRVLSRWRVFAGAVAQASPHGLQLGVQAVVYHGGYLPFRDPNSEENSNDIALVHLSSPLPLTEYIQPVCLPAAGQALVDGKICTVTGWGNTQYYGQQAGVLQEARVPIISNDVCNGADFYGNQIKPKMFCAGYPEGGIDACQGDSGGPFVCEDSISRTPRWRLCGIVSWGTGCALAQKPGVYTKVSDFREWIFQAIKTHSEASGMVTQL

One may read the Ki as a dissociation constant, usually derived from enzyme kinetics or from competition with a known ligand. The EC50 is the concentration needed to bring the measured effect to its halfway point. Lower therefore signals an effect from little substance. A word on the solubility: it is the concentration that dissolves in the medium under given conditions. Lower therefore signals little dissolved substance. Take `N=C(N)c1ccc2[nH]c(-c3cccc(N4CCCCC4)n3)cc2c1`: the Ki in [1] worked out at 0.6 µM; in series [2] it was 2.3 µM; in series [3], 1.5 µM. For the same molecule, the figures for the EC50 in series [4] and in [10] were 5.2 µM and 2.6 µM, respectively. Moreover, the Activity was 10% in series [5] and 12% in series [6]. In series [7], the remaining at 20 min, 1 µM came out at 82%. In addition, the remaining at 40 min, 1 µM in series [8] was determined as 60%. The molecule also displayed a solubility in [9] of 135 µM (≈ 43.1 µg/mL).
With `CC(C)c1cccc(-c2cc3cc(C(=N)N)ccc3[nH]2)c1O`, the Ki in series [1] stood at 4.9 µM; in [3], 4.4 µM; in [11] it was 0.8 µM; in series [12] it was 1 µM; in series [13], 1.9 µM.
For `N=C(N)c1ccc2[nH]c(-c3cccc(N4CCCCC4)c3O)cc2c1`, the results for the Ki in series [1] and in [3] were 1.4 µM and 0.5 µM, respectively. Further, the EC50 in [4] stood at 4.9 µM; in [10], 4.2 µM. The Activity in [5] was 22%; in [6], 18%. The remaining at 20 min, 1 µM in series [7] worked out at 38%. The remaining at 40 min, 1 µM in series [8] worked out at 22%. In series [9], this molecule came in with a solubility of 126 µM (≈ 42.1 µg/mL).
The inhibition is the relative decrease from the control value, in per cent. Read a high inhibition as a strong effect. In the case of `N=C(N)c1ccc2[nH]c(-c3cccc(C4(O)CCCCC4)[n+]3[O-])cc2c1`, the EC50 in series [14] was 0.5 µM; in series [4] it was 1.8 µM; in series [16] it was 2.1 µM; in [10] it was 0.6 µM. The Ki worked out at 0.1 µM in series [1]; 7.8 µM in series [2]; 1.1 µM in series [3]; 0.8 µM in series [11]; 8.2 µM in [12]; 8.6 µM in series [13]. In series [15], this molecule came in with an inhibition of 11%. Moreover, the Activity is on record as 8% in [5] and 1% in series [6]. In addition, the remaining at 20 min, 1 µM in series [7] amounted to 100%. In addition, in series [8], the remaining at 40 min, 1 µM is 99%. In [9], this molecule came in with a solubility of 200 µM (≈ 70.1 µg/mL).
For the molecule `N=C(N)c1ccc2[nH]ccc2c1`, the Ki in series [1] is 500 µM.
`CC(C)c1cc(Cl)cc(-c2cc3cc(C(=N)N)ccc3[nH]2)c1O`: the Ki in series [1] and in series [3] was 4.8 µM each time. This molecule registered an inhibition in series [15] of 5%.
For `N=C(N)c1ccc2[nH]c(-c3ccccc3O)nc2c1`, the Ki in series [1] turned out to be 40 µM; in series [11], 23 µM; in [12], 14 µM.
As to `N=C(N)c1ccc2[nH]c(-c3cccc(C4(F)CCCCC4)n3)cc2c1`, the Ki in series [1] was found to be 0.4 µM; in [2], 2.7 µM; in [3], 0.8 µM; in series [11] it was 0.5 µM; in [12] it was 0.7 µM; in series [13] it was 3.6 µM. In addition, the inhibition in series [15] came out at 11%.
Turning to `N=C(N)c1ccc2[nH]c(-c3cccc(C4(O)CCCCC4)n3)cc2c1`, the EC50 in series [14] was 0.6 µM; in series [4], 2.6 µM; in series [16], 3.5 µM; in series [10], 0.9 µM. Besides, the Ki amounted to 0.1 µM in series [1]; 1.3 µM in [2]; 2.1 µM in series [3]; 0.4 µM in series [11]; 1.4 µM in series [12]; 2.1 µM in series [13]. Besides, the inhibition in series [15] is 24%. For the same molecule, the Activity in [5] is on record as 10%; in series [6], 8%. Besides, in series [7], the remaining at 20 min, 1 µM was determined as 86%. The remaining at 40 min, 1 µM in series [8] amounted to 64%. The molecule further showed a solubility in [9] of 148 µM (≈ 49.5 µg/mL).
Consider `N=C(N)c1ccc2[nH]c(-c3ccccc3O)cc2c1`, for which the Ki stood at 35 µM in series [1], 60 µM in [3] and 8 µM in series [11].
